The supplement of paper PMC10949913

What was measured:
Conditions in all cases: 48 h
[1] = test system: CU-ACC1; test: area under concentration-response curve (viability) (AUC (a.u.)); higher = less active
Summary of the method: (§1)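 Three adrenocortical carcinoma cell lines in 1,536-well plates received 23 nL of each library compound at 11 concentrations and were read with CellTiter-Glo after 48 h, with 15 minutes at room temperature before measuring luminescence. Vehicle and empty-well controls served for per-plate normalisation. AC50 and area under the curve were extracted from fitted concentration-response curves, discarding all curve classes other than inhibitory or non-responding.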

[2] = test system: CU-ACC2; test: as above
Summary of the method: as §1

[3] = test system: NCI-H295R; test: as above
Summary of the method: as §1

[4] = test system: NCI-H295R; test: AC50 viability; higher = less potent
Summary of the method: as §1

For `CC[C@]1(O)C[C@H]2CN(CCC3=C([NH]C4=C3C=CC=C4)[C@@](C2)(C(=O)OC)C5=C(OC)C=C6N(C)[C@H]7[C@](O)([C@H](OC(C)=O)[C@]8(CC)\C=C/CN9CC[C@]7([C@H]89)C6=C5)C(=O)OC)C1`, the “area under concentration-response curve” value [1] was 504, the “area under concentration-response curve” value [2] was 560 and the “area under concentration-response curve” value [3] was 444. The AC50 viability [4] was 3.32 µM.
For `CCNCC[S+]([O-])(=O)NC[C@]1(S\C(=N/N1C(=O)C(C)(C)C)NC(=O)C(C)(C)C)C2=CC=CC=C2`, the “area under concentration-response curve” value [1] was 452, the “area under concentration-response curve” value [2] was 544 and the “area under concentration-response curve” value [3] was 415. The AC50 viability [4] was 0.209 µM.
`C/C(=C\c1csc(C)n1)[C@@H]1C[C@@H]2O[C@@H]2CCC[C@H](C)[C@H](O)[C@@H](C)C(=O)C(C)(C)[C@@H](O)CC(=O)O1` was tested, and the “area under concentration-response curve” value [1] was 462, the “area under concentration-response curve” value [2] was 569 and the “area under concentration-response curve” value [3] was 347. It also gave an AC50 viability [4] of 0.0132 µM.
`CON(C)C(=O)N1/N=C(S[C@@]1(CCCN)C2=CC=CC=C2)/C3=CC(=CC=C3F)F` was tested, and the “area under concentration-response curve” value [2] was 517, the “area under concentration-response curve” value [3] was 348 and the AC50 viability [4] was 2.09 µM.
With `COc1ccc(-c2ccc3c(N4CCOC[C@@H]4C)nc(N4CCOC[C@@H]4C)nc3n2)cc1CO` the “area under concentration-response curve” value [1] was 431, the “area under concentration-response curve” value [2] was 485 and the “area under concentration-response curve” value [3] was 387. For the same molecule, the AC50 viability [4] was 0.417 µM.
With `C=CCn1c(=O)c2cnc(Nc3ccc(N4CCN(C)CC4)cc3)nc2n1-c1cccc(C(C)(C)O)n1` the “area under concentration-response curve” value [1] was 452, the “area under concentration-response curve” value [2] was 531 and the “area under concentration-response curve” value [3] was 393. For the same molecule, the AC50 viability [4] was 1.86 µM.
In the case of `CC(=O)c1cnc2ccc(-c3cc(Cl)c(O)c(Cl)c3)nc2c1N[C@H]1CC[C@H](CN(C)C)CC1`, the “area under concentration-response curve” value [1] is reported as 491, the “area under concentration-response curve” value [2] is reported as 433 and the “area under concentration-response curve” value [3] is reported as 373. For the same molecule, the AC50 viability [4] was 0.959 µM.
For `COc1cc([C@@H]2c3cc4c(cc3[C@H](O)[C@H]3COC(=O)[C@H]23)OCO4)cc(OC)c1OC`, the “area under concentration-response curve” value [1] was 452, the “area under concentration-response curve” value [2] was 464 and the “area under concentration-response curve” value [3] was 359. It also gave an AC50 viability [4] of 0.0209 µM.
With `COc1c(C)c2c(c(O)c1C/C=C(\C)CCC(=O)O)C(=O)OC2` the “area under concentration-response curve” value [1] was 467, the “area under concentration-response curve” value [2] was 561 and the “area under concentration-response curve” value [3] was 482. It also gave an AC50 viability [4] of 0.59 µM.
`Cc1ncc(NC(=O)c2cccc(C(F)(F)F)c2)cc1-c1cnc(OC2CCOCC2)c(N2CCOCC2)c1` was tested, and the “area under concentration-response curve” value [1] was 541, the “area under concentration-response curve” value [2] was 535 and the “area under concentration-response curve” value [3] was 560. For the same molecule, the AC50 viability [4] was 20.9 µM.
With `CC(C)NC(=O)[C@H]1CC[C@@H](n2c(NC(=O)c3ccc(F)cc3)nc3ccc(CN4CCC(C(C)(C)O)CC4)cc32)CC1` the “area under concentration-response curve” value [1] was 465, the “area under concentration-response curve” value [2] was 626 and the “area under concentration-response curve” value [3] was 612. It also gave an AC50 viability [4] of 9.11 µM.
With `C[C@@H]1COCCN1c1cc(C2([S@+](C)(=N)[O-])CC2)nc(-c2ccnc3[nH]ccc23)n1` the “area under concentration-response curve” value [1] was 524, the “area under concentration-response curve” value [2] was 491 and the “area under concentration-response curve” value [3] was 525. For the same molecule, the AC50 viability [4] was 16.6 µM.
In the case of `O=C1\C=C(OC2=C1SC=C2C3=CC=C4OCCOC4=C3)\N5CCOCC5`, the “area under concentration-response curve” value [1] is reported as 293, the “area under concentration-response curve” value [2] is reported as 276 and the “area under concentration-response curve” value [3] is reported as 350. It also gave an AC50 viability [4] of 0.0742 µM.
For `COC1=CC=CC2=C1C(=NC(=N2)C3=CC=CS3)NN4C(=O)\C=C(C)/C4=O`, the “area under concentration-response curve” value [1] was 423, the “area under concentration-response curve” value [2] was 489 and the “area under concentration-response curve” value [3] was 438. For the same molecule, the AC50 viability [4] was 5.9 µM.
In the case of `COc1cc([C@@H]2c3cc4c(cc3[C@H](O)[C@H]3COC(=O)[C@@H]23)OCO4)cc(OC)c1OC`, the “area under concentration-response curve” value [1] is reported as 504, the “area under concentration-response curve” value [2] is reported as 467 and the “area under concentration-response curve” value [3] is reported as 453. The AC50 viability [4] was 0.934 µM.
For `NC(=O)Nc1cc(-c2ccc(CN3CCOCC3)cc2)sc1C(N)=O`, the “area under concentration-response curve” value [1] was 540, the “area under concentration-response curve” value [2] was 597 and the “area under concentration-response curve” value [3] was 519. It also gave an AC50 viability [4] of 6.61 µM.
In the case of `Oc1ccc(Nc2nc(-c3ccc(Cl)cc3)cs2)cc1`, the “area under concentration-response curve” value [1] is reported as 403, the “area under concentration-response curve” value [2] is reported as 496 and the “area under concentration-response curve” value [3] is reported as 474. For the same molecule, the AC50 viability [4] was 16.6 µM.
For `CN1c2ccccc2C(=O)N2CCc3c([nH]c4ccccc34)C21` (stereo unspecified), the “area under concentration-response curve” value [1] was 506, the “area under concentration-response curve” value [2] was 633 and the “area under concentration-response curve” value [3] was 512. It also gave an AC50 viability [4] of 2.63 µM.
With `CC(C)c1onc(-c2c(Cl)cccc2Cl)c1COc1ccc(/C=C/c2cccc(C(=O)O)c2)c(Cl)c1` the “area under concentration-response curve” value [1] was 442, the “area under concentration-response curve” value [2] was 508 and the “area under concentration-response curve” value [3] was 480. The AC50 viability [4] was 13.2 µM.
With `CN1CCN([C@H]2CC[C@H](n3cc(-c4ccc(Oc5ccccc5)cc4)c4c(N)ncnc43)CC2)CC1` the “area under concentration-response curve” value [1] was 488, the “area under concentration-response curve” value [2] was 517 and the “area under concentration-response curve” value [3] was 481. For the same molecule, the AC50 viability [4] was 9.34 µM.
`CN1CCN(CC1)C2=CC3=C([NH]C(=N3)C/4=C(\N)C5=C(F)C=CC=C5NC4=O)C=C2` was tested, and the “area under concentration-response curve” value [1] was 485, the “area under concentration-response curve” value [2] was 574 and the “area under concentration-response curve” value [3] was 479. It also gave an AC50 viability [4] of 20.9 µM.
`CCCCc1oc2ccc(N[S+](C)(=O)[O-])cc2c1C(=O)c1ccc(OCCCN(CCCC)CCCC)cc1` was tested, and the “area under concentration-response curve” value [1] was 477, the “area under concentration-response curve” value [2] was 563 and the “area under concentration-response curve” value [3] was 486. The AC50 viability [4] was 7.42 µM.
`CCOc1ccc(Nc2nc(-c3c(C)nc4ccccn34)cs2)cc1` was tested, and the “area under concentration-response curve” value [1] was 493, the “area under concentration-response curve” value [2] was 497 and the “area under concentration-response curve” value [3] was 487. The AC50 viability [4] was 2.95 µM.
For `NC(=O)[C@H]1CCS[C@@H]2C[C@]3(CCCN3C(=O)Cc3ccc(NC(=O)COc4ccc(Cl)cc4Cl)cc3)C(=O)N12`, the “area under concentration-response curve” value [2] was 528, the “area under concentration-response curve” value [3] was 483 and the AC50 viability [4] was 14.8 µM.
In the case of `CC/C(=C(/CC)c1ccc(O)cc1)c1ccc(O)cc1`, the “area under concentration-response curve” value [1] is reported as 516, the “area under concentration-response curve” value [2] is reported as 585 and the “area under concentration-response curve” value [3] is reported as 517. The AC50 viability [4] was 18.6 µM.
`C/C(=C\c1csc(C)n1)[C@@H]1C[C@@H]2O[C@]2(C)CCC[C@H](C)[C@H](O)[C@@H](C)C(=O)C(C)(C)[C@@H](O)CC(=O)O1` was tested, and the “area under concentration-response curve” value [1] was 467, the “area under concentration-response curve” value [2] was 548 and the “area under concentration-response curve” value [3] was 346. The AC50 viability [4] was 0.0118 µM.
`C[C@@H]1C[C@H]2[C@@H]3\C=C(C)/C4=C/C5=C(C[C@]4(C)[C@H]3[C@@H](O)C[C@]2(C)[C@@]1(O)C(=O)COC(C)=O)C=N[N]5C6=CC=CC=C6` was tested, and the “area under concentration-response curve” value [1] was 513, the “area under concentration-response curve” value [2] was 608 and the “area under concentration-response curve” value [3] was 529. It also gave an AC50 viability [4] of 20.9 µM.
